We go through 5 compounds from patent US20220387393A1, “METHODS FOR THE TREATMENT OF DYSMYELINATING/DEMYELINATING DISEASES” (Board of Regents, The University of Texas System, priority 2019, published 2022).

The test system of data set [1] is Qk-iCKO mice. Description: Qki depletion-induced demyelination in Qk-iCKO mice, daily oral administration. It counts as in vivo. As to conditions: for Qk-iCKO mice that lived for more than 100 days: 3 of 13 treated Qk-iCKO mice; for maximum survival duration increased / clinical scores / onset of neurological deficits / prolonged median survival times / body weights: Qk-iCKO mice; for maximum survival duration increased: compared to controls; for clinical scores / onset of neurological deficits / prolonged median survival times / body weights: oral administration, compared to vehicle; for body weights: 4 weeks after tamoxifen injection; for higher myelin lipid levels (FluoroMyelin) than vehicle-treated Qk-iCKO mice: corpus callosum; for higher myelin lipid levels (FluoroMyelin) than vehicle-treated Qk-iCKO mice / myelin sheaths (g-ratio) / more myelinated axons than vehicle-treated Qk-iCKO mice: after 5 weeks of treatment; for myelin sheaths (g-ratio) / more myelinated axons than vehicle-treated Qk-iCKO mice: optic nerves; for myelin sheaths (g-ratio): versus vehicle; for more myelinated axons than vehicle-treated Qk-iCKO mice: electron micrographs. From the text:
FIGS. 2A-2J. […] In FIG. 2A, the four groups within each week represent, from left to right, Ctrl (Veh), iCKO (Veh), Ctrl (KD3010), and iCKO (KD3010). In FIG. 2D, the four groups within each week represent, from left to right, Ctrl (Veh), iCKO (Veh), Ctrl (Bex), and iCKO (Bex). In FIGS. 2B and 2E, the two lines that reach the X-axis represent the iCKO populations. (FIGS. 2C and 2F) Body weights of Qk-iCKO mice and controls receiving daily oral administration of KD3010, Bex, or Veh for 4 weeks after tamoxifen injection. (FIGS. 2G and 2H) Representative electron micrographs and quantification of the percentage of myelinated axons and g-ratio of the optic nerves of the experimental mice after 5 weeks of treatment. Scale bars, 500 nm. (FIGS. 2I and 2J) Representative images and quantification of FluoroMyelin level in the corpus callosum tissues of experimental mice after 5 weeks of treatment. Scale bars, 50 μm. Data are mean±s.d.; one-way ANOVA with Fisher's LSD correction. *P<0.05; **P<0.01; ***P<0.001; ****P<0.0001. ns, not significant.
Therefore, whether PPARβ-RXRα agonists could alleviate lipid defect-induced demyelination and its related symptoms was tested.

Data set [2] has as its system corpus callosum (CC) myelin of mouse brains. It counts as in vivo. As to conditions: for delayed-onset demyelination and myelin lipid reduction in the CC: 6 months, but not 4 months, after chemotherapy cessation. From the text:
(§1) FIGS. 4A-4C. […] (FIG. 4A) Quantitative FluoroMyelin staining of the corpus callosum (CC) in 4-month and 6-month mouse brains treated with 5-FU, saline and/or KD3010. (FIG. 4B) Quantitative immunofluorescent staining of oligodendrocyte lineage marker Olig2 in the CC of 6-month mouse brains treated with 5-FU or saline.

Data set [3] shares this test system. As to conditions: 6 months after a clinically relevant dose for 1 week; cited from earlier work.
For data set [4], the system named is demyelination induced by 5-FU. As to the kind of experiment: 5-FU (chemotherapy)-induced demyelination in mice, treatment with agonist. The note with it: FluoroMyelin staining of corpus callosum, mouse brains treated with 5-FU. The class given is in vivo.
Excerpt: as §1

For data set [5] the following is noted: Dickey et al., 2016; cited from earlier work.

As to `C=C(c1ccc(C(=O)O)cc1)c1cc2c(cc1C)C(C)(C)CCC2(C)C` [bexarotene], in data set [1], the “Qk-iCKO mice that lived for more than 100 days” value is 23.1%, the “maximum survival duration increased” value amounted to 4.03 fold, the clinical scores entry was “lowered” and the “onset of neurological deficits” value is “significantly delayed”. In data set [1], the “prolonged median survival times” value is reported as 1.41 fold, the body weights entry is recorded as “increased”, the “higher myelin lipid levels (FluoroMyelin) than vehicle-treated Qk-iCKO mice” value was determined as 89.5% and the “myelin sheaths (g-ratio)” value is “thicker”. Besides, in data set [1], the “more myelinated axons than vehicle-treated Qk-iCKO mice” value is 73.7%.

With `CN(Cc1cnc2nc(N)nc(N)c2n1)c1ccc(C(=O)N[C@@H](CCC(=O)O)C(=O)O)cc1` [methotrexate], in data set [2], the “delayed-onset demyelination and myelin lipid reduction in the CC” value was “exhibited delayed-onset demyelination and myelin lipid reduction”.

For the compound `O=c1[nH]cc(F)c(=O)[nH]1` [5-FU, 5-fluorouracil], in data set [3], the “delayed-onset demyelination (Han et al., 2008)” value is reported as “developed delayed-onset demyelination”. The “delayed-onset demyelination and myelin lipid reduction in the CC” value in data set [2] was “exhibited delayed-onset demyelination and myelin lipid reduction”. In addition, in data set [2] (CC of 6-month mouse brains), the “changes in myelin protein levels and oligodendrocyte numbers” value is recorded as “minimal changes”. Moreover, in data set [2] (Olig2/Qki double staining, CC of 6-month mouse brains), the “Qki in the oligodendrocytes in the lesions” value is “greatly reduced”.

Regarding `COc1cccc2c1C(=O)c1c(O)c3c(c(O)c1C2=O)C[C@@](O)(C(=O)CO)C[C@@H]3O[C@H]1C[C@H](N)[C@H](O)[C@H](C)O1` [doxorubicin], in data set [2], the “delayed-onset demyelination and myelin lipid reduction in the CC” value is “exhibited delayed-onset demyelination and myelin lipid reduction”.

With `C[C@@H]1CN(c2ccc(OC(F)(F)F)cc2)C[C@H](C)N1S(=O)(=O)c1cccc2c1C[C@@H](C(=O)O)C2` [KD3010, (S)-4-[cis-2,6-dimethyl-4-(4-trifluoromethoxy-phenyl)piperazine-1-sulfonyl]-indan-2-carboxylic acid], the “demyelination induced by 5-FU” value in data set [4] is “greatly alleviated”. The CNS permeability result in data set [5] is listed as “CNS-permeable”. Besides, in data set [1], the “Qk-iCKO mice that lived for more than 100 days” value was 23.1%, the “maximum survival duration increased” value was found to be 3.72 fold, the clinical scores entry was “lowered” and the “onset of neurological deficits” value was “significantly delayed”. For the same compound, in data set [1], the “prolonged median survival times” value amounted to 2.34 fold, the body weights result is “increased”, the “higher myelin lipid levels (FluoroMyelin) than vehicle-treated Qk-iCKO mice” value turned out to be 119.4% and the “myelin sheaths (g-ratio)” value is reported as “thicker”. Besides, the “more myelinated axons than vehicle-treated Qk-iCKO mice” value in data set [1] worked out at 115.3%.
